# Measured values from ChEMBL document CHEMBL5665443, “Enzyme Inhibitor Single Concentration assay results for EUbOPEN Chemogenomics Library” (2024).
# Columns and labels:
# [1] = target: T1, Adenine DNA glycosylase (Homo sapiens) (UniProt Q9UIF7); details: Hit No;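 note: human MUTYH activity read as 594 nm fluorescence from cleavage and release of a quenched DNA duplex, coupled with APE1 for strand incision, lower signal meaning inhibition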
# T1 sequence (whole entry): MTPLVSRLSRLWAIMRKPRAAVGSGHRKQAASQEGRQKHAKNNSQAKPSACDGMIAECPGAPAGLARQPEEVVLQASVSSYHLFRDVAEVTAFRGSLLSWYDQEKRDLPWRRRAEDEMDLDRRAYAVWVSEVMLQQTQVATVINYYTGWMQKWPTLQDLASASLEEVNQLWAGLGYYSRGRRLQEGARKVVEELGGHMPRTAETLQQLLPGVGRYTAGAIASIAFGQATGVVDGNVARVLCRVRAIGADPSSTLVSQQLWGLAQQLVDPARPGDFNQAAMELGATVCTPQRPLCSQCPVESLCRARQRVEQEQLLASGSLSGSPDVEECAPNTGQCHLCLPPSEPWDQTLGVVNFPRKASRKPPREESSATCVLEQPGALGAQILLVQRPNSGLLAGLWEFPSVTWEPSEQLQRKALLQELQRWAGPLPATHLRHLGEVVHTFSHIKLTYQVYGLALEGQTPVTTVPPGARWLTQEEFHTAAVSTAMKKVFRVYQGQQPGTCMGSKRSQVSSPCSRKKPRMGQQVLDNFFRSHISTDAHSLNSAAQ
# [2] = target: Endonuclease 8-like 1 (Homo sapiens) (UniProt Q96FI4); details: Hit No;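 note: fluorescence at 594 nm from quenched duplex DNA oligonucleotides released by NEIL1 cleavage and strand separation, reported as reduction of this enzyme activity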
# [3] = target: DNA-3-methyladenine glycosylase (Homo sapiens) (UniProt P29372); details: Compound Concentration 10.0 uM, Hit No;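 note: enzyme assay where MPG cuts a quenched duplex DNA oligonucleotide probe, paired with APE1 for strand incision and turnover, read as fluorescence at 594 nm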
# [4] = target: T2, Endonuclease III-like protein 1 (Homo sapiens) (UniProt P78549); details: Hit No;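 note: enzyme assay tracking NTHL1 cutting and release of a quenched double-stranded DNA oligo substrate, read as fluorescence at 594 nm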
# T2 sequence (whole entry): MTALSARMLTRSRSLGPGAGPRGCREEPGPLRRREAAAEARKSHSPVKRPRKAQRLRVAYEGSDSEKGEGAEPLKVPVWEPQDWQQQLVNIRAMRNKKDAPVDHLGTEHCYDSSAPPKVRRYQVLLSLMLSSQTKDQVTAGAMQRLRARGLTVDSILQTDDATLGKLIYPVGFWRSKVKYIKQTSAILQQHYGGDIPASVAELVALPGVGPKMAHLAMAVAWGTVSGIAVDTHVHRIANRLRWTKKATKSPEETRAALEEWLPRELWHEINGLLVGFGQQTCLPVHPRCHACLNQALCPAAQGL
# [5] = target: Methyl-CpG-binding domain protein 4 (Homo sapiens) (UniProt O95243); details: Hit No;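 note: MBD4 activity read as fluorescence at 594 nm from cleavage and release of a quenched duplex DNA oligonucleotide, with APE1 coupled to incise the strand and raise turnover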
# [6] = target: T3, Single-strand selective monofunctional uracil DNA glycosylase (Homo sapiens) (UniProt Q53HV7); details: Hit No;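 note: enzymatic SMUG1 assay coupled with APE1, reading fluorescence at 594 nm released when a quenched double-stranded DNA oligonucleotide substrate is cleaved and separated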
# T3 sequence (whole entry): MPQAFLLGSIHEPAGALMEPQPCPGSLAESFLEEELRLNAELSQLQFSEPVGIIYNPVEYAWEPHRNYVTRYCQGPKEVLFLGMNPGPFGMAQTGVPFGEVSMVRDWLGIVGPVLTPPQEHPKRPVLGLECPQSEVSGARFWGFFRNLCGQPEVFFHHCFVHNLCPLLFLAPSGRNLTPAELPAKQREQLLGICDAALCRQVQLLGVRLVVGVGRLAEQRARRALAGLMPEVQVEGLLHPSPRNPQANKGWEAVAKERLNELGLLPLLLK
# [7] = target: Uracil-DNA glycosylase (Homo sapiens) (UniProt P13051); details: Hit No;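 note: UNG excision on a quenched double-stranded DNA oligo probe, with APE1 added for strand incision and turnover, read as fluorescence at 594 nm as strands separate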
# [8] = target: N-glycosylase/DNA lyase (Homo sapiens) (UniProt O15527); details: Hit No;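 note: OGG1 cleavage of a quenched duplex DNA oligonucleotide, coupled to APE1 for strand incision, read as fluorescence at 594 nm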
# [9] = target: T4, Endonuclease 8-like 2 (Homo sapiens) (UniProt Q969S2); details: Compound Concentration 10.0 uM, Hit No;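 note: fluorescence at 594 nm reports NEIL2 cutting and release of a quenched double-stranded DNA oligo substrate, reduced signal read as inhibition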
# T4 sequence (whole entry): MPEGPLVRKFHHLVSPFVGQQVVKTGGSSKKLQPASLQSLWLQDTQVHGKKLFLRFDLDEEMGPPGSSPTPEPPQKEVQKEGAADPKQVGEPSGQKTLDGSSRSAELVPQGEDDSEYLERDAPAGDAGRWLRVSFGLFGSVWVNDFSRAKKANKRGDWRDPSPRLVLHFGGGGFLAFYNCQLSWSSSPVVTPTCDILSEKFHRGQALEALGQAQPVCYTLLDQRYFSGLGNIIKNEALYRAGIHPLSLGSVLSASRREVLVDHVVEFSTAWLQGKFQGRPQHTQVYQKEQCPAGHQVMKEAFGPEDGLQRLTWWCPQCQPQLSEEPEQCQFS
# [10] = target: G/T mismatch-specific thymine DNA glycosylase (Homo sapiens) (UniProt Q13569); details: Hit No;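 note: human TDG cleavage of quenched duplex DNA oligonucleotides coupled to APE1, strand release read as fluorescence at 594 nm, inhibition of TDG activity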
# Sequence of G/T mismatch-specific thymine DNA glycosylase (Homo sapiens) (Q13569 whole entry): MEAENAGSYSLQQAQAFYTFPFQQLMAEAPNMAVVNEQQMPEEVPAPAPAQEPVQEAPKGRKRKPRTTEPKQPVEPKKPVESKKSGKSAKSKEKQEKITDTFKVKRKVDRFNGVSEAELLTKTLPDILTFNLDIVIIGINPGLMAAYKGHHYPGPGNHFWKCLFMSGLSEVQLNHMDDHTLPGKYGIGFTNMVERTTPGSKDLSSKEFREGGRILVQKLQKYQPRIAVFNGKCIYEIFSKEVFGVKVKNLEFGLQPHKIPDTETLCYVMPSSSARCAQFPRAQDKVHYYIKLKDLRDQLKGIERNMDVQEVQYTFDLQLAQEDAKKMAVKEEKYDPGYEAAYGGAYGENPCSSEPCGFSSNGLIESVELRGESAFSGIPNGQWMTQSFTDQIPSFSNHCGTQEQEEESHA
# Sequence of Uracil-DNA glycosylase (Homo sapiens) (P13051 whole entry): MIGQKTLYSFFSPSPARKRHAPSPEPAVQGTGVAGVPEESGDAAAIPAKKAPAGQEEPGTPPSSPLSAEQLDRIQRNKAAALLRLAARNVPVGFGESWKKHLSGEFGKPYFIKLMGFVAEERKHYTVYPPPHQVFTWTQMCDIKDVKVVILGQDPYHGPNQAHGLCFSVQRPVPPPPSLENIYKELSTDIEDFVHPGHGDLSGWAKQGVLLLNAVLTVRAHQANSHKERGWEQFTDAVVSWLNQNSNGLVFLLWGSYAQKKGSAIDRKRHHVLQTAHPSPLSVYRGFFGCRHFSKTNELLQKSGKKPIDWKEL
# Sequence of Endonuclease 8-like 1 (Homo sapiens) (Q96FI4 whole entry): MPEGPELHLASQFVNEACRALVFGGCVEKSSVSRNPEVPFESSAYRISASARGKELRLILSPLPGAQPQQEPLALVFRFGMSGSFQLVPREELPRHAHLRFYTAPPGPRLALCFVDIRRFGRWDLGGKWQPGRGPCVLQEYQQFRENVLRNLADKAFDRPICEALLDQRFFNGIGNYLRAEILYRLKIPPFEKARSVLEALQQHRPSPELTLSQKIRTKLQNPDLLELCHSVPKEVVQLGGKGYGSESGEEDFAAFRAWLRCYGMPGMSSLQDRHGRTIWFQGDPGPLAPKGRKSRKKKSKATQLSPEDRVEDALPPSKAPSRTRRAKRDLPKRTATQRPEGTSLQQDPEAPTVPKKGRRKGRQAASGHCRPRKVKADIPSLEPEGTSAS
# Sequence of N-glycosylase/DNA lyase (Homo sapiens) (O15527 whole entry): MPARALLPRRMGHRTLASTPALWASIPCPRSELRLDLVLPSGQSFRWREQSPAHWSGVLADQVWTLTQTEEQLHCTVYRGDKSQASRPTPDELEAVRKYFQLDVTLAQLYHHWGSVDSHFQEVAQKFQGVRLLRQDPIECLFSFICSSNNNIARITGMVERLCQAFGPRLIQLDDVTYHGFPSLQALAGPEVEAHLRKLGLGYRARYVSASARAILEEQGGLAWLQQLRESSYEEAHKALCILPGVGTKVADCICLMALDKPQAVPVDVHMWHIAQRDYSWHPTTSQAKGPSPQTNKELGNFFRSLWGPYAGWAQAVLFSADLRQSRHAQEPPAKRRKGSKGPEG
# Sequence of Methyl-CpG-binding domain protein 4 (Homo sapiens) (O95243 whole entry, the tested form may be a part): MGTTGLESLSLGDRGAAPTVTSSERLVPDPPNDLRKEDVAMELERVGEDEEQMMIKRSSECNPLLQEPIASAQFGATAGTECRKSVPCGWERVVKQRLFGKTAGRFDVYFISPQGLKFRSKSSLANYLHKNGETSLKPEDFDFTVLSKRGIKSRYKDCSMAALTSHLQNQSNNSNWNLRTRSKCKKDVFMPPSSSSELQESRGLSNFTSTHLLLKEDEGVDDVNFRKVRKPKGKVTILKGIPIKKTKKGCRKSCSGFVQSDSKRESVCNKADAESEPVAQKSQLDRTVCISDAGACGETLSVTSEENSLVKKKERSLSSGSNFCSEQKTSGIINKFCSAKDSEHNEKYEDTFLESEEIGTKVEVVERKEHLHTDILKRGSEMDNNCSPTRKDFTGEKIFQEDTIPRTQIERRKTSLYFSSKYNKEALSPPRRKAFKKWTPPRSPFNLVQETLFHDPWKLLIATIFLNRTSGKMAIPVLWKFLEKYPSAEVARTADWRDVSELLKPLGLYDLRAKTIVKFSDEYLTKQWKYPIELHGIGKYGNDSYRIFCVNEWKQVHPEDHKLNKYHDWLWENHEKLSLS
# Sequence of DNA-3-methyladenine glycosylase (Homo sapiens) (P29372 whole entry): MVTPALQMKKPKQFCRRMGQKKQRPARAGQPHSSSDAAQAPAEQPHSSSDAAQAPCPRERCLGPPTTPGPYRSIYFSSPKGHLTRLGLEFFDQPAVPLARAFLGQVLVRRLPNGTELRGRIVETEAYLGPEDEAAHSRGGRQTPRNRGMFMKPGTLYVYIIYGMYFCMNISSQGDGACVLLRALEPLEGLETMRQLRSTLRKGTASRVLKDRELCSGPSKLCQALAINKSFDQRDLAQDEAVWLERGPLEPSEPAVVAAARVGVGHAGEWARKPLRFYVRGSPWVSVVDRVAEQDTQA
SMILES,inhibition ([1]; Compound Concentration 10.0 uM) [%],inhibition ([2]; Compound Concentration 10.0 uM) [%],inhibition [3] [%],inhibition ([4]; Compound Concentration 10.0 uM) [%],inhibition ([5]; Compound Concentration 10.0 uM) [%],inhibition ([6]; Compound Concentration 10.0 uM) [%],inhibition ([7]; Compound Concentration 10.0 uM) [%],inhibition ([8]; Compound Concentration 10.0 uM) [%],inhibition [9] [%],inhibition ([10]; Compound Concentration 10.0 uM) [%],inhibition ([1]; Compound Concentration 1.0 uM) [%],inhibition ([2]; Compound Concentration 1.0 uM) [%],inhibition ([4]; Compound Concentration 1.0 uM) [%],inhibition ([5]; Compound Concentration 1.0 uM) [%],inhibition ([6]; Compound Concentration 1.0 uM) [%],inhibition ([7]; Compound Concentration 1.0 uM) [%],inhibition ([8]; Compound Concentration 1.0 uM) [%],inhibition ([10]; Compound Concentration 1.0 uM) [%]
CC(=O)Nc1cccc2c1c(Sc1ccc(Cl)cc1)c(C)n2CC(=O)O,23.9,-0.204,5.39,6.32,11.4,-1.39,-0.965,3.49,5.76,16.4,,,,,,,,
Clc1ccccc1C(c1ccccc1)(c1ccccc1)n1cccn1,23.9,5.94,-4.99,15.4,5.21,-6.62,-9.12,-9.77,-6.46,10.7,,,,,,,,
O=C(NNC(=O)c1ccc(CNS(=O)(=O)c2ccc(F)c(Cl)c2)cc1)c1ccccc1,22.1,3.71,9.45,4.7,27,13.3,-0.108,13.2,-6.97,16.4,,,,,,,,
O=[N+]([O-])c1ccc(CN2CCOCCOCCN(Cc3ccc([N+](=O)[O-])cc3)CCOCC2)cc1,3.42,-2.36,31.4,23.7,13.5,-2.67,-6.52,-5.46,-0.35,-1.51,,,,,,,,
O=C(O)c1ccccc1S(=O)(=O)NCCCCN1C(=O)c2cccc3cccc(c23)C1=O,23.6,8.25,3.23,-8.34,12,12.5,-8.5,2.55,8,16.1,,,,,,,,
CN1CCC(c2c[nH]c3ccc(O)cc23)CC1,-5.79,-2.51,-0.341,12.9,8.69,-3.74,-5.58,-0.678,-2.39,22.5,,,,,,,,
CN[C@@H]1CCc2[nH]c3ccc(C(N)=O)cc3c2C1,-4.97,8.84,-3.1,-9.8,14.9,-7.16,-5.51,3.36,-0.483,16.1,,,,,,,,
Cn1cc(Cl)c2c(Oc3c(F)cc(Nc4cc(Cl)nc(N)n4)cc3F)ccnc21,40.4,4.86,-1.23,-1.29,64.2,27.1,11.7,-9.66,2.57,53.4,1.46,-7.79,8.46,-4.8,17.9,2.73,-2.36,48.5
Cc1ccc2c(c1CCC(=O)O)CC[C@@H](NS(=O)(=O)c1ccc(Cl)cc1)C2,33.4,5.13,11.8,15.1,16.2,4.86,-7.64,10,1.01,18,,,,,,,,
O=C1CC[C@@]2(O)[C@H]3Cc4ccc(O)c5c4[C@@]2(CCN3CC2CC2)[C@H]1O5,14.6,-9.92,4.49,-4.39,4.42,-9.51,-2.62,-3.73,-8.5,27.8,,,,,,,,
O=c1ccc2c(OCCCCc3ccccc3)c3ccoc3cc2o1,4.38,4.31,2.27,7.17,-4.82,0.0989,-2.86,0.716,2.71,5.01,,,,,,,,
Cc1nn(C)c2nc(NNC(=O)Nc3cc(Cl)nc(Cl)c3)cc(C(C)C)c12,28.9,-1.83,-8,4.12,-2.58,4.42,-4.71,-2.44,7.5,16.6,,,,,,,,
NCCc1c[nH]c2ccc(O)cc12,2.2,5.88,21.8,1.92,-6.88,-6.38,-8.18,-2.75,9.75,20.7,,,,,,,,
O=C(Nc1ccc(S(=O)(=O)Nc2nccs2)cc1)C(c1ccccc1)c1ccccc1,80.2,-2.51,34,17.9,66,7.67,3.78,-6.39,-1.11,52.5,,,,,,,,
O=C1NCN(c2ccccc2)C12CCN(CCCOc1ccc(F)cc1)CC2,-5.23,-1.54,-9.19,4.86,6.25,13.1,-6.4,-4.77,2.26,13.9,,,,,,,,
FC(F)(F)c1ccccc1-c1cc(C(F)(F)F)c2[nH]c(C3=NOC4(CCCCC4)C3)nc2c1,-3.71,0.00926,0.733,-6.04,2.91,-0.41,-6.03,-6.32,0.669,6.11,,,,,,,,
COc1ccc(CCCN2CCC(COC(c3ccccc3)c3ccccc3)CC2)cc1,35,4.75,47.2,13.8,49.2,9.31,-1.12,-0.567,8.06,47.6,,,,,,,,
NC(=O)c1cc(-c2ccc(S(=O)(=O)[C@H]3CC[C@H](Nc4ccc(C(F)(F)F)cn4)CC3)cc2)ccn1,25.9,11,-6.62,17.1,10.9,12.2,4.02,-3,9.33,8.07,,,,,,,,
O=C(NCC12CC3CC(CC(C3)C1)C2)c1ccccc1Cl,21.2,11.9,21.7,1.39,30.1,-1.71,-0.487,-1.14,-6.46,10.4,,,,,,,,
O=c1cccc2n1C[C@@H]1CNC[C@H]2C1,43.9,-1.18,-3.1,-4.39,10.5,-3.8,-3.14,-5.41,-3.15,-5.51,,,,,,,,
